Laboratory results from ChEMBL document CHEMBL1153748 (J Med Chem, 2010).

Columns and labels:
[1] = molecular target: T1, Peroxisome proliferator-activated receptor alpha (Homo sapiens, UniProt Q07869); assay: Agonist activity at human PPARalpha ligand binding domain expressed in human 293T cells co-transfected with Gal4-DBD by luciferase transactivation assay; assay type: cell-based
T1 sequence (Q07869 whole entry): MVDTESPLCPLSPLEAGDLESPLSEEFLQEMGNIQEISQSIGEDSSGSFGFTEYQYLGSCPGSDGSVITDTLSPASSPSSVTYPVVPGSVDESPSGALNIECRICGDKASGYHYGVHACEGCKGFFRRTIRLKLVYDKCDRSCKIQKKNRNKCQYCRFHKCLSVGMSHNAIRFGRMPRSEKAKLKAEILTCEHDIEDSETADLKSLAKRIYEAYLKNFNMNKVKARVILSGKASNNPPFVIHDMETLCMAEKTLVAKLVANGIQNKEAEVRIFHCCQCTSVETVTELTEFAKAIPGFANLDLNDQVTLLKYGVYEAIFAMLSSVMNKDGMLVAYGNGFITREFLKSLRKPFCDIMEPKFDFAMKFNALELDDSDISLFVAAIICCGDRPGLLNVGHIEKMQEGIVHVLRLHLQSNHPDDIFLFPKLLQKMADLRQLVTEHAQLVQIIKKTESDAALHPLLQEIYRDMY

[2] = molecular target: T2, Peroxisome proliferator-activated receptor gamma (Homo sapiens, UniProt P37231); assay type: cell-based, 293T
T2 sequence (P37231 whole entry): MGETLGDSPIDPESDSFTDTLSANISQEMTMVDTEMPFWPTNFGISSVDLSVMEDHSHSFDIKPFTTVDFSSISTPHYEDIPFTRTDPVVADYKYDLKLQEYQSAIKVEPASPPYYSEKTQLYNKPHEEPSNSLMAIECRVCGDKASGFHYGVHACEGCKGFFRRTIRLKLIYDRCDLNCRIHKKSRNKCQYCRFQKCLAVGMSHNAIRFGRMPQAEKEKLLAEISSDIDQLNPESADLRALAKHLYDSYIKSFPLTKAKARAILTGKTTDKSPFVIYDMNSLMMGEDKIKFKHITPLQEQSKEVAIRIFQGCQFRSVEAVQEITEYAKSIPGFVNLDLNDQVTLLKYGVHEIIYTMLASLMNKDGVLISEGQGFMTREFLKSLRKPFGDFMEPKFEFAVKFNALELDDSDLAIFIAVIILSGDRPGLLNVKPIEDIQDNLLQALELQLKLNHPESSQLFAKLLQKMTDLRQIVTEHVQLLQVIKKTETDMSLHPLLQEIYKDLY

[3] = molecular target: T3, Peroxisome proliferator-activated receptor delta (Homo sapiens, UniProt Q03181)
T3 sequence (Q03181 whole entry): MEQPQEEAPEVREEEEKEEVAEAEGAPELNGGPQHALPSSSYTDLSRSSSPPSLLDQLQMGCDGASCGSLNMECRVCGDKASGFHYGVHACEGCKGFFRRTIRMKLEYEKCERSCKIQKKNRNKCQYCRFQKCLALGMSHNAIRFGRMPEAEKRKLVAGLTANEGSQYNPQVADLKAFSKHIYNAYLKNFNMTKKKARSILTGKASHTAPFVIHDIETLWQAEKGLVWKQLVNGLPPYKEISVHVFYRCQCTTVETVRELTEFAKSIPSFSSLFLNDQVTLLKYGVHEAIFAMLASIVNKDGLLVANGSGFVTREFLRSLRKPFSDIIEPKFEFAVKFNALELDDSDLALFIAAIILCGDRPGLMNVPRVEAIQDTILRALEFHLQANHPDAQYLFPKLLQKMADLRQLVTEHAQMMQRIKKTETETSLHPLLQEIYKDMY

EC50 ([1]; read-out: EC50)	EC50 ([2]; read-out: EC50)	EC50 [3]	SMILES	EC50 ([1]; 293t)	EC50 ([2]; 293t)
> 10 µM	> 10 µM	4.71 µM	Cc1cc(OCc2nc(-c3ccc(Cl)cc3)cs2)ccc1OCC(=O)O		
> 10 µM	> 10 µM	0.51 µM	CCCc1ccc(-c2sc(COc3ccc(OCC(=O)O)c(C)c3)nc2-c2ccc(OC)cc2)cc1		
> 10 µM	> 10 µM	> 10 µM	COc1ccc(-c2sc(COc3ccc(OCC(=O)O)c(C)c3)nc2C)cc1		
> 10 µM	> 10 µM	0.018 µM	CCC(C)Oc1ccc(-c2nc(COc3ccc(OCC(=O)O)c(C)c3)sc2-c2ccc(OC(F)(F)F)cc2)cc1 (centres undefined)		
> 10 µM	> 10 µM	0.19 µM	Cc1ccc(-c2sc(COc3ccc(OCC(=O)O)c(C)c3)nc2-c2cccnc2)cc1		
> 10 µM	> 10 µM	0.35 µM	Cc1cc(OCc2nc(-c3ccc(C(F)(F)F)cc3)c(-c3ccc(C(F)(F)F)cc3)s2)ccc1OCC(=O)O		
> 10 µM	> 10 µM	0.06 µM	COc1ccc(-c2nc(COc3ccc(OCC(=O)O)c(C)c3)sc2-c2ccc(Cl)cc2)cc1		
> 10 µM	> 10 µM	0.13 µM	COc1ccc(-c2nc(COc3ccc(OCC(=O)O)c(C)c3)sc2-c2ccc(OC)c(Cl)c2)cc1		
> 10 µM	> 10 µM	2.26 µM	COc1ccc(-c2nc(COc3ccc(OCC(=O)O)cc3C)sc2-c2ccc(C(F)(F)F)cc2)cc1		
> 10 µM	> 10 µM	> 10 µM	Cc1ccc(-c2csc(COc3ccc(OCC(=O)O)c(C)c3)n2)cc1		
> 10 µM	> 10 µM	> 10 µM	COc1ccc(-c2nc(COc3ccc(OCC(=O)O)c(C)c3)sc2-c2ccccc2C(F)(F)F)cc1		
> 10 µM	> 10 µM	1.39 µM	Cc1cc(OCc2nc(-c3ccc(C(F)(F)F)cc3)cs2)ccc1OCC(=O)O		
> 10 µM	> 10 µM	0.01 µM	COc1ccc(-c2nc(COc3ccc(OCC(=O)O)c(C)c3)sc2-c2ccc(-c3ccccc3)cc2)cc1		
> 10 µM	> 10 µM	0.23 µM	COc1ccc(-c2nc(CSc3ccc(OCC(=O)O)c(C)c3)sc2-c2ccc(C(F)(F)F)cc2)cc1		
> 10 µM	> 10 µM	0.059 µM	Cc1cc(OCc2nc(-c3cncnc3)c(-c3ccc(OC(F)(F)F)cc3)s2)ccc1OCC(=O)O		
> 10 µM	> 10 µM	> 10 µM	COc1ccc(-c2nc(COc3ccc(OCC(=O)O)c(C)c3)sc2-c2cccc3ccccc23)cc1		
> 10 µM	> 10 µM	0.055 µM	Cc1cc(OCc2nc(-c3cncnc3)c(-c3ccc(OC(F)(F)F)cc3)o2)ccc1OCC(=O)O		
> 10 µM	> 10 µM	0.72 µM	COc1ccc(-c2nc(COc3ccc(OCC(=O)O)c(C)c3)sc2-c2ccc(C(C)(C)C)cc2)cc1		
> 10 µM	> 10 µM	0.04 µM	COc1ccc(-c2nc(COc3ccc(OCC(=O)O)c(C)c3)sc2-c2ccc(C(F)(F)F)cc2)cc1		

EC50 ([1]; read-out: EC50)	EC50 ([2]; read-out: EC50)	EC50 [3]	SMILES	EC50 ([1]; 293t)	EC50 ([2]; 293t)
> 10 µM	> 10 µM	1.41 µM	COc1ccc(-c2nc(Sc3ccc(OCC(=O)O)c(C)c3)sc2-c2ccc(OC)cc2)cc1		
> 10 µM	> 10 µM	0.07 µM	O=C(O)Cc1cccc(-c2noc(-c3ccccc3)c2C(=O)NCCOc2cc(Cl)cc(Cl)c2)c1		
> 10 µM	> 10 µM	0.14 µM	COc1ccc(-c2nc(COc3ccc(CCC(=O)O)c(C)c3)sc2-c2ccc(C(F)(F)F)cc2)cc1		
> 10 µM	> 10 µM	0.13 µM	Cc1cc(OCc2nc(-c3ccccc3)c(-c3ccc(Cl)cc3)s2)ccc1OCC(=O)O		
> 10 µM	> 10 µM	5.9 µM	Cc1cc(OCc2nc(-c3ccc(Cl)cc3)c(-c3ccccc3)s2)ccc1OCC(=O)O		
> 10 µM	> 10 µM	0.07 µM	COc1ccc(-c2nc(COc3ccc(OCC(=O)O)c(C)c3)sc2-c2cccc(C(F)(F)F)c2)cc1		
> 10 µM	> 10 µM	0.068 µM	Cc1cc(OCc2nc(-c3cccnc3)c(-c3ccc(OC(F)(F)F)cc3)s2)ccc1OCC(=O)O		
0.3 µM	2.3 µM	3.2 µM	COc1ccc(-c2nc(Sc3cccc(C(C)C(=O)O)c3)sc2-c2ccc(OC)cc2)cc1 (centres undefined)		
> 10 µM	> 10 µM	2.4 µM	Cc1cc(OCc2nc(-c3ccc(C(F)(F)F)cc3)c(C)s2)ccc1OCC(=O)O		
> 10 µM	> 10 µM	0.056 µM	COc1ccc(-c2nc(COc3ccc(OCC(=O)O)c(C)c3)sc2-c2ccc(OC(F)(F)F)cc2)cc1F		
> 10 µM	> 10 µM	0.47 µM	COc1ccc(-c2nc(CSc3ccc(OCC(=O)O)c(C)c3)sc2-c2ccc(OC)cc2)cc1		
> 10 µM	> 10 µM	0.01 µM	COc1ccc(-c2nc(COc3ccc(OCC(=O)O)c(C)c3)oc2-c2ccc(C(F)(F)F)cc2)cc1		
> 10 µM	> 10 µM	> 10 µM	COc1ccc(-c2nc(COc3ccc4oc(C(=O)O)cc4c3)sc2-c2ccc(C(F)(F)F)cc2)cc1		
> 10 µM	> 10 µM	0.51 µM	Cc1cc(OCc2nc(-c3ccc(Cl)cc3)c(-c3ccc(Cl)cc3)s2)ccc1OCC(=O)O		
> 10 µM	> 10 µM	0.331 µM	Cc1cc(OCc2nc(-c3ccc(C(F)(F)F)cc3)c(-c3ccc(OC(F)(F)F)cc3)s2)ccc1OCC(=O)O		
> 10 µM	> 10 µM	0.05 µM	COc1ccc(-c2nc(COc3ccc(OCC(=O)O)c(C)c3)oc2-c2ccc(Cl)cc2)cc1		
> 10 µM	> 10 µM	0.66 µM	COc1ccc(-c2nc(CSc3ccc(OCC(=O)O)c(C)c3)oc2-c2ccc(OC)cc2)cc1		
> 10 µM	> 10 µM	0.01 µM	CCCc1ccc(-c2oc(COc3ccc(OCC(=O)O)c(C)c3)nc2-c2ccc(OC)cc2)cc1		
> 10 µM	> 10 µM	0.045 µM	Cc1cc(OCc2nc(-c3ccc(N4CCOCC4)cc3)c(-c3ccc(OC(F)(F)F)cc3)s2)ccc1OCC(=O)O		

SMILES	EC50 ([1]; read-out: EC50)	EC50 ([2]; read-out: EC50)	EC50 [3]	EC50 ([1]; 293t)	EC50 ([2]; 293t)
Cc1cc(OCc2nc(-c3ccc4c(c3)OCO4)c(-c3ccc(OC(F)(F)F)cc3)s2)ccc1OCC(=O)O	> 10 µM	> 10 µM	0.031 µM		
COc1ccc(-c2nc(COc3ccc(OCC(=O)O)c(C)c3)oc2-c2ccc(-c3ccccc3)cc2)cc1	> 10 µM	> 10 µM	0.01 µM		
COc1ccc(-c2nc(COc3ccc(OCC(=O)O)c(C)c3)sc2-c2cc3ccccc3o2)cc1	> 10 µM	> 10 µM	0.05 µM		
COc1ccc(-c2nc(COc3ccc(OCC(=O)O)c(C)c3)oc2-c2cnc3ccccc3c2)cc1	> 10 µM	> 10 µM	0.11 µM		
Cc1cc(OCc2nc(C)c(-c3ccc(Cl)cc3)s2)ccc1OCC(=O)O	> 10 µM	> 10 µM	0.32 µM		
Cc1cc(OC/C=C(\C#Cc2ccc(C(F)(F)F)cc2)c2ccc(Br)cc2)ccc1OCC(=O)O	> 10 µM	> 10 µM	0.13 µM		
COc1ccc(-c2nc(COc3ccc4c(ccn4CC(=O)O)c3)sc2-c2ccc(C(F)(F)F)cc2)cc1	> 10 µM	> 10 µM	0.34 µM		
Cc1cc(CN(CC(=O)Nc2ccc(Cl)cc2Cl)C2CCCCC2)ccc1OCC(=O)O			0.003 µM	Not Active	Not Active
Cc1cc(OCc2nc(-c3ccc(N4CCCC4)cc3)c(-c3ccc(OC(F)(F)F)cc3)s2)ccc1OCC(=O)O	> 10 µM	> 10 µM	0.41 µM		
COc1ccc(-c2nc(COc3ccc4c(CC(=O)O)cccc4c3)sc2-c2ccc(C(F)(F)F)cc2)cc1	> 10 µM	> 10 µM	0.74 µM		
